Laboratory results reported in patent US7186743B2, “Substituted pyrazolyl compounds for the treatment of inflammation” (Pharmacia Corporation, priority 2001, dated 2007).
pIC50: −log10 of the molar value. Where a name gives a salt, the structure may show the parent alone. Read-outs that look alike come from different tables or passages of the source.

Columns and labels:
IKK2 = biological target: T1, IKK2 (Homo sapiens, UniProt O14920); assay: IKKβ Resin Enzyme Assay (IKK2 resin); format: biochemical
T1 construct: made in house; host or cells: insect cells (baculovirus, pFastBac; SF9)
T1 sequence (O14920 1-756): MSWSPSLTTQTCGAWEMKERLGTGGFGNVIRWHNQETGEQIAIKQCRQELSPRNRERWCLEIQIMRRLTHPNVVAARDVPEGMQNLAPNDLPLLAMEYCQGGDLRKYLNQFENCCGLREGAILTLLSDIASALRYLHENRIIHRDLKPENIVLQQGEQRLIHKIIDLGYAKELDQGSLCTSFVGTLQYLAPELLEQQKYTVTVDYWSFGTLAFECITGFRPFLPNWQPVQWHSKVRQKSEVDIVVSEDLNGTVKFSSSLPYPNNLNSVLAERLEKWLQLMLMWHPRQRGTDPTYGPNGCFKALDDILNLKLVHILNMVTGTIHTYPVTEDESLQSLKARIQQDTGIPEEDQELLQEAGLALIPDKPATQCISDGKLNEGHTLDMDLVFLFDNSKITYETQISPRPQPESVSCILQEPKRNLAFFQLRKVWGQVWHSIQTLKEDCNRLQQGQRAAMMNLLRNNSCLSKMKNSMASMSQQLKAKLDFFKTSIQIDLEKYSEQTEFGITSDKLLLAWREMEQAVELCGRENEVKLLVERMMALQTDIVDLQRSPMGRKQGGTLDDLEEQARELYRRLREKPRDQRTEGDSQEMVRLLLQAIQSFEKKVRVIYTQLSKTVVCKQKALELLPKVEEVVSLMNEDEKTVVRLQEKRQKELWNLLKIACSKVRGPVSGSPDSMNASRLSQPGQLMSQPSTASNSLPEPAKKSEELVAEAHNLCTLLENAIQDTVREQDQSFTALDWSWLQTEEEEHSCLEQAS
In short: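 Enzyme: human IKK2 with a C-terminal FLAG tag, baculovirus-expressed, purified as homodimer on anti-FLAG resin. It phosphorylates a biotinylated IκBα peptide with 1 μM ATP plus [γ-33P]ATP in 25 mM Hepes pH 7.6, Mg/Mn, for 30 min at 25° C. Incorporation is counted by scintillation after anion-exchange resin stop.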

[1] = Table 5, read-out: IKK2 Resin Avg. IC50
[2] = Table 7, read-out: IKK2 Resin IC50

Compound | pIC50 (IKK2; [1]) | melting point | pIC50 (IKK2; [2])
NC(=O)c1nn(-c2ccc3c(c2)OCO3)c2c1CCc1ccc(NC(=O)c3cccnc3NCCO)cc1-2 [Example 208, 1-(1,3-benzodioxol-5-yl)-8-[({2-[(2-hydroxyethyl)amino]pyridin-3-yl}carbonyl)amino]-4,5-dihydro-1H-benzo[g]indazole-3-carboxamide] | ≥ 6.00 | 250 to 253 °C | –
Cc1cc(Cl)ncc1C(=O)Nc1ccc2c(c1)-c1c(c(C(N)=O)nn1-c1ccc(F)cc1)CC2 [Example 246, 8-{[(6-chloro-4-methylpyridin-3-yl)carbonyl]amino}-1-(4-fluorophenyl)-4,5-dihydro-1H-benzo[g]indazole-3-carboxamide] | – | 280 to 284 °C | ≥ 6.00
CN1CCN(c2cc(C(=O)Nc3ccc4c(c3)-c3c(c(C(N)=O)nn3-c3ccc5c(c3)OCO5)CC4)c(Cl)cn2)CC1 [Example 214, 1-(1,3-benzodioxol-5-yl)-8-{[5-chloro-2-(4-methylpiperazin-1-yl)isonicotinoyl]amino}-4,5-dihydro-1H-benzo[g]indazole-3-carboxamide] | – | 305 to 307 °C | –
NC(=O)c1nn(-c2ccc3c(c2)OCO3)c2c1CCc1ccc(NC(=O)c3cccnc3N)cc1-2 [Example 210, 8-{[(2-aminopyridin-3-yl)carbonyl]amino}-1-(1,3-benzodioxol-5-yl)-4,5-dihydro-1H-benzo[g]indazole-3-carboxamide] | – | 265 to 267 °C | –
Cc1cc(N2CCOCC2)ncc1C(=O)Nc1ccc2c(c1)-c1c(c(C(N)=O)nn1-c1ccc(F)cc1)CC2 [Example 247, 1-(4-fluorophenyl)-8-{[(4-methyl-6-morpholin-4-ylpyridin-3-yl)carbonyl]amino}-4,5-dihydro-1H-benzo[g]indazole-3-carboxamide] | – | 301 °C (dec.) | ≥ 6.00
CNc1ncccc1C(=O)Nc1ccc2c(c1)-c1c(c(C(N)=O)nn1-c1ccc3c(c1)OCO3)CC2 [Example 207, 1-(1,3-benzodioxol-5-yl)-8-({[2-(methylamino)pyridin-3-yl]carbonyl}amino)-4,5-dihydro-1H-benzo[g]indazole-3-carboxamide] | ≥ 6.00 | 273 to 275 °C | –
NC(=O)c1nn(-c2ccc(F)cc2)c2c1CCc1ccc(NC(=O)c3cccnc3N3CCNCC3)cc1-2 [Example 245, 1-(4-fluorophenyl)-8-{[(2-piperazin-1-ylpyridin-3-yl)carbonyl]amino}-4,5-dihydro-1H-benzo[g]indazole-3-carboxamide] | – | 156 to 157 °C | ≥ 6.00
NC(=O)c1nn(-c2ccc3c(c2)OCO3)c2c1CCc1ccc(NC(=O)c3nc(Cl)ccc3Cl)cc1-2 [Example 216, 1-(1,3-benzodioxol-5-yl)-8-{[(3,6-dichloropyridin-2-yl)carbonyl]amino}-4,5-dihydro-1H-benzo[g]indazole-3-carboxamide] | – | 263 to 265 °C | –
NC(=O)c1nn(-c2ccc3c(c2)OCO3)c2c1CCc1ccc(NC(=O)c3cc(N4CCOCC4)ncc3Cl)cc1-2 [Example 212, 1-(1,3-benzodioxol-5-yl)-8-[(5-chloro-2-morpholin-4-ylisonicotinoyl)amino]-4,5-dihydro-1H-benzo[g]indazole-3-carboxamide] | ≥ 6.00 | 269 to 271 °C | –
CN1CCN(c2ccc(Cl)c(C(=O)Nc3ccc4c(c3)-c3c(c(C(N)=O)nn3-c3ccc5c(c3)OCO5)CC4)n2)CC1 (as salt: salt) [Example 217, 1-(1,3-benzodioxol-5-yl)-8-({[3-chloro-6-(4-methylpiperazin-1-yl)pyridin-2-yl]carbonyl}amino)-4,5-dihydro-1H-benzo[g]indazole-3-carboxamide] | – | 264 to 266 °C (dec.) | –
NC(=O)c1nn(-c2ccc3c(c2)OCO3)c2c1CCc1ccc(NC(=O)c3cc(Cl)ncc3Cl)cc1-2 [Example 211, 1-(1,3-benzodioxol-5-yl)-8-[(2,5-dichloroisonicotinoyl)amino]-4,5-dihydro-1H-benzo[g]indazole-3-carboxamide] | – | 292 to 293 °C | –
